These results are taken from patent publication US7659299B2, “Compounds inhibiting the binding of sap for treating osteoarthritis” (Pentraxin Therapeutics Limited, priority 2003, dated 2010).

Values joined by “and” are separate entries in the source; they are usually repeats but may differ in a detail not shown here. Identical values can stand only once.

Assay [1] addresses T1, SAP (Homo sapiens, UniProt P02743). Description: Isothermal calorimetry: dissociation constants between SAP and compounds. The conditions noted are these: replicate measurements, read-out: Kd in micromoles per liter (replicate measurements). The assay is classed as binding. The text has this:
Surface plasmon resonance (SPR) is a low throughput but powerfully informative method to identify compounds that are bound by, or themselves bind to SAP, either in a calcium dependent fashion or independently of calcium, for the purposes of the present invention. For example, low molecular weight compounds that inhibit binding of SAP to its macromolecular ligands, including target ligands relevant to the present invention, can be detected by their effect on the signal generated by fluid phase SAP binding to ligand immobilised on the solid phase (Example A). Furthermore, when SAP itself is immobilised on the solid phase in an SPR instrument, the interaction with it of test molecules provided in the fluid phase generates a signal that can be detected and quantified. Purified SAP immobilized within an SPR instrument gives a quantifiable signal when it is exposed to another molecule that forms a complex with the SAP, and this is distinct from the absence of such a signal if no complex is formed. […] Another low throughput but powerful direct method is isothermal calorimetry that measures the heat of interaction in solution between SAP and test compounds according to the present invention. The binding affinity can be measured precisely as a guide to potential efficacy. Typical results by this method for the dissociation constants, Kd, between SAP and various compounds are as follows: […]

Assay [2] has as its target T1, SAP. Description: Treatment of patients with osteoarthritis: plasma SAP concentration and joint symptoms. The class given is in vivo. Further details: 5 μl of radiolabelled SAP in TN; from tissue. Conditions: patient. The source says:
1) The patient, a person retired General Practitioner living in New Zealand, has a long history of bone and joint injuries, starting as a child on a farm and continuing as a teenager and then adult playing rugby and skiing. They have suffered from pain and swelling of previously damaged joints following manual work and especially in cold weather. The proximal interphalangeal joints of the left middle and right fourth fingers, the right elbow and the mid-thoracic intervertebral joints have been most affected. Symptoms and signs have progressively worsened over the past 22 years, so that their capacity for physical work had become very restricted and during winter they have required frequent or continuous treatment with non-steroidal anti-inflammatory drugs. These are all typical manifestations of osteoarthritis. In 2000 the discovery of impaired renal function led eventually to a second, and completely separate diagnosis of hereditary systemic amyloidosis caused by a mutation in the gene for fibrinogen A α-chain.
They started experimental treatment for their amyloidosis on 9 Oct. 2001 with (R)-1-[6-[(R)-2-Carboxy-pyrrolidin-1-yl]-6-oxo-hexanoyl]pyrrolidine-2-carboxylic acid, 10 mg b.d. by subcutaneous injection. […] This improvement was sustained and increased so that by April 2002, the autumn in New Zealand, it was impressively beyond doubt. Throughout that winter, for the first time in many years, […] no longer required treatment with non-steroidal anti-inflammatory drugs, despite increased physical activity. […] Over the past few months they have been doing regular hard physical work on the land, fencing and landscaping, including lifting and carrying significant weights, without suffering any of the pain and swelling that previously severely affected them even without the stress of unusual physical activity.
Their shoulders were painful, particularly when reaching up or behind their head, making drying their hair and some household tasks painful and difficult. […] They also experienced pain in their right wrist when performing some tasks, particularly opening jars, a manoeuvre that they found difficult. These symptoms are all compatible with osteoarthritis.
CD has hereditary systemic amyloidosis caused by a mutation in the gene for apolipoprotein AI, diagnosed in October 2001 during investigation of chronic renal impairment. […] They started experimental treatment for their amyloidosis on 22 Oct. 2001 with (R)-1-[6-[(R)-2-Carboxy-pyrrolidin-1-yl]-6-oxo-hexanoyl]pyrrolidine-2-carboxylic acid, 15 mg b.d. by subcutaneous injection. […] Treatment with (R)-1-[6-[(R)-2-Carboxy-pyrrolidin-1-yl]-6-oxo-hexanoyl]pyrrolidine-2-carboxylic acid finished in October 2002 and their remarkable remission has continued to the present (June 2003).

Assay [3] has as its target T1, SAP. Description: Inhibition of binding of 125I radiolabelled SAP to influenza virus immobilized in microtitre plates. Further details: 5 μl of radiolabelled SAP in TN; from tissue. The conditions noted are these: read-out: Percent inhibition of binding of radiolabelled SAP to immobilized influenza virus.

T1 sequence (P02743 20-223): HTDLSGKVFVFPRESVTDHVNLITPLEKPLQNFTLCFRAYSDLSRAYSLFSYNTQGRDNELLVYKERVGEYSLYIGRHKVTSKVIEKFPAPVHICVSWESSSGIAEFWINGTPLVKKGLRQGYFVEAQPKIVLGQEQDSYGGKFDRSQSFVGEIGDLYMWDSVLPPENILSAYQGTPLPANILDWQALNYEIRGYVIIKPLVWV

On to `O=C(O)[C@H]1CCCN1C(=O)CCCCC(=O)N1CCC[C@@H]1C(=O)O` [Ro-63-8695, (R)-1-[6-[(R)-2-Carboxy-pyrrolidin-1-yl]-6-oxo-hexanoyl]pyrrolidine-2-carboxylic acid], for which the Kd at SAP [1] was 13.9 nM and 5.9 nM and 6.5 nM and 8.8 nM. Moreover, the “plasma SAP concentration reduced by” value at SAP [2] (10 mg b.d. subcutaneous injection, after three months) is listed as “over 95%”; at SAP [2] (15 mg b.d. subcutaneous injection, after two months), “over 95%”. Also, on SAP [2] (10 mg b.d. subcutaneous injection, treatment Oct. 2001 to June 2003), the symptoms of osteoarthritis result is reported as “remained in remission”. Moreover, at SAP [2] (15 mg b.d. subcutaneous injection, by January 2002 (start 22 Oct. 2001)), the “joint pain and function” value is “free of pain and had normal function of their joints”. In addition, on SAP [3] (compound 200 nM), the inhibition at 0.2 µM was determined as 36%. Moreover, at SAP [3] (compound 2 μM), the inhibition at 2 µM was determined as 81%. In addition, on SAP [3] (compound 20 μM), the inhibition at 20 µM turned out to be 90%. Besides, the inhibition at 200 µM at SAP [3] (compound 200 μM) was found to be 96%. Further, the inhibition at 2000 µM at SAP [3] (compound 2 mM) is 98%.
